{"source": "patent US20010049441A1", "about": "“Azaindoles having serotonin receptor affnity” (Allelix Biopharmaceuticals, Inc., priority 1999, published 2001)", "data": [{"target": "T1, 5-HT6 receptor (Homo sapiens, UniProt P50406)", "T1 construct": "expressed in transfected cells", "T1 sequence (P50406 whole entry)": "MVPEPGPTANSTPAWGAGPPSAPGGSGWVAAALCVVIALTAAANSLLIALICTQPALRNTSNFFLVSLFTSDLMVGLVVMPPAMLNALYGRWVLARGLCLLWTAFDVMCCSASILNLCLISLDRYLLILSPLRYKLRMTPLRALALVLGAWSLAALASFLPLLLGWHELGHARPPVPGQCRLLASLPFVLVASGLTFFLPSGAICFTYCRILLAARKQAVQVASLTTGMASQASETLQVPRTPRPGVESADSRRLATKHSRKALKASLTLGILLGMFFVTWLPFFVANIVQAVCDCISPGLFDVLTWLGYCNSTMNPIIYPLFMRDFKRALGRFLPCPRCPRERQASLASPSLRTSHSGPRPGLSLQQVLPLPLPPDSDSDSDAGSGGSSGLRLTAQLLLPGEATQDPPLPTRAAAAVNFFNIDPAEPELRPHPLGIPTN", "test": "Binding affinity for the 5-HT6 receptor (3H-LSD displacement, membranes of recombinant cells)", "conditions": "100 nM of test compound; 3H-LSD (2 nM); 60 minute incubation at 37° C.; read-out: percent inhibition of binding of the radioligand for the 5-HT6 receptor", "method": "All of the compounds of the invention were evaluated using cell types receptive specifically to the 5-HT6 receptor (for cloning and characterization of the human 5-HT6 receptor see Kohen, et al. J. Neurochemistry, 66, 1996: 47-56). The assay protocol generally entailed the incubation of membranes prepared from cells expressing the 5-HT6 receptor with ^3H-LSD (2 nM). Increasing levels of the test compound were incubated with the radioligand and the membrane homogenates prepared from the recombinant cells. After a 60 minute incubation at 37° C., the incubation was terminated by vacuum filtration. The filters were washed with buffer and the filters were counted for radioactivity using liquid scintillation spectrometry. The affinity of the test compound for the 5-HT6 receptor was determined by computer-assisted analysis of the data and determining the amount of the compound necessary to inhibit 50% of the binding of the radioligand to the receptor. Concentrations ranging from 10^−11 M to 10^−5 M of the test compound were evaluated. […] Affinity for the 5-HT6 receptor is expressed as the amount (in percent) of binding of the radioligand that is inhibited in the presence of 100 nM of test compound. A greater percent inhibition indicates greater affinity for the 5-HT6 receptor.", "units": {"inhibition at 0.1 µM": "%"}, "values": [{"smiles": "O=S(=O)(c1cccc2ccccc12)n1cc(C2CCN3CCCC3C2)c2ccncc21", "note": "(single isomer, unassigned) [3-(Octahydro-7-indolizinyl)-1-(1-naphthalenesulfonyl)-6-azaindole]", "inhibition at 0.1 µM": "> 80"}, {"smiles": "O=S(=O)(c1ccc2ccccc2c1)n1cc(C2CCN3CCCC3C2)c2cccnc21", "note": "(single isomer, unassigned) [3-(Octahydro-7-indolizinyl)-1-(2-naphthalenesulfonyl)-7-azaindole]", "inhibition at 0.1 µM": "> 80"}, {"smiles": "O=C(c1c(Cl)cccc1Cl)n1cc(C2=CCN3CCCC3C2)c2cccnc21", "note": "(stereo not shown) [1-(2,6-Dichlorobenzoyl)-3-(1,2,3,5,8,8a-hexahydro-7-indolizinyl)-7-azaindole]", "inhibition at 0.1 µM": "> 80"}, {"smiles": "O=S(=O)(c1cccc2ccccc12)n1cc(C2=CCN3CCCC3C2)c2cnccc21", "note": "(stereo not shown) [3-(1,2,3,5,8,8a-Hexahydro-7-indolizinyl)-1-(1-naphthalenesulfonyl)-5-azaindole]", "inhibition at 0.1 µM": "> 95"}, {"smiles": "O=S(=O)(c1ccc2ccccc2c1)n1cc(C2=CCN3CCCC3C2)c2cccnc21", "note": "(stereo not shown) [3-(1,2,3,5,8,8a-Hexahydro-7-indolizinyl)-1-(2-naphthalenesulfonyl)-7-azaindole]", "inhibition at 0.1 µM": "> 90"}, {"smiles": "Cc1ccc(S(=O)(=O)n2cc(C3=CCN4CCCC4C3)c3cnccc32)cc1", "note": "(stereo not shown) [3-(1,2,3,5,8,8a-Hexahydro-7-indolizinyl)-1-(4-methylbenzenesulfonyl)-5-azaindole]", "inhibition at 0.1 µM": "> 80"}, {"smiles": "O=S(=O)(c1ccccc1)n1cc(C2=CCN3CCCC3C2)c2cnccc21", "note": "(stereo not shown) [3-(1,2,3,5,8,8a-Hexahydro-7-indolizinyl)-1-benzenesulfonyl-5-azaindole]", "inhibition at 0.1 µM": "> 90"}, {"smiles": "O=S(=O)(c1cccc2ccccc12)n1cc(C2CCN3CCCC3C2)c2ncccc21", "note": "(stereo not shown) [3-(Octahydro-7-indolizinyl)-1-(1-naphthalenesulfonyl)-4-azaindole]", "inhibition at 0.1 µM": "> 80"}, {"smiles": "O=S(=O)(c1ccc2ccccc2c1)n1cc(C2CCN3CCCC3C2)c2ncccc21", "note": "(stereo not shown) [3-(Octahydro-7-indolizinyl)-1-(2-naphthalenesulfonyl)-4-azaindole]", "inhibition at 0.1 µM": "> 95"}]}, {"target": "T1, 5-HT6 receptor", "test": "Functional assay: serotonin-induced adenyl cyclase activity (cAMP) in HEK 293 cells", "format": "cell-based", "conditions": "HEK 293 cells stably expressing human 5HT6 receptor; test compound (100 nM and 10 μM) along with serotonin; cAMP by EIA", "method": "The 5HT6 receptor responds to serotonin and other agonists by increasing adenyl cyclase mediated production of cyclic AMP. Particular test compounds were assayed for their effect on adenyl cyclase activity using the procedure described below.\nCompounds acting as antagonists at the 5HT6 receptor will antagonize the agonist effect of serotonin and thus, will block the serotonin-induced increase in adenyl cyclase activity.\nHEK 293 cells stably expressing the human 5HT6 receptor were plated in 6 well plates in DMEM (Dulbecco's Modified Eagle Medium)/F12 (Nutrient Mixture F12—Ham) media with 10% FCS (fetal calf serum) and G418 (Geneticen Disulfate, 500 ug/ml), and incubated at 37° C. in a CO2 incubator. The cells were allowed to grow to about 70% confluence before use in the assay.\nThe culture medium of each well was removed, and the wells were washed once with serum free media. Then 2 ml of SFM+IBMX medium (SFM with 0.5 mM IBMX, 3-isobutyl-1-methylxanthine, 0.1% ascorbic acid and 10 mM pargyline) was added to each well and the wells were incubated at 37° C. for 10 min. Following incubation, the SFM+IBMX medium was removed from each well and fresh SFM+IBMX media was added to the wells separately with one of a) serotonin (1 μM final concentration); b) test compound (100 nM and 10 μM, to test for agonist activity); and c) test compound (100 nM and 10 μM) along with serotonin ([…], to test for antagonist activity). Basal adenyl cyclase activity was determined from wells with only SFM+IBMX media added.\nThe cells were then incubated at 37° C. for 30 minutes in a CO2 incubator. […] The pellets were discarded and the supernatants were stored at 4° C. until assayed for cAMP concentration. cAMP content for each extract was determined in duplicate by EIA (enzyme-immunoassay) using the Amersham Biotrak cAMP EIA kit (Amersham RPN 225). Final results were expressed as %basal response for agonists and % reversal of serotonin response for antagonists.\nThe total stimulation of adenyl cyclase by serotonin (So) was determined as the difference in concentration of cAMP in the serotonin-treated cells (Cd) and the basal-treated cells (Cf).\nThe net stimulation (S) of basal adenyl cyclase by an agonist test compound was determined as the difference in cAMP concentration in the drug-treated cell (C) and the basal-treated cells (Cf).\nThe net stimulation (Ss) of basal adenyl cyclase by serotonin in the presence of an antagonist test compound was determined as the difference in cAMP concentration in the serontonin-drug-treated cells (Cs) and the basal-treated cells (Cf).\nThe ability of the antagonist test compound to reverse the serotonin stimuation of adenyl cyclase activity (% reversal, %R) was determined by the formula: […]", "values": [{"smiles": "O=S(=O)(c1cccc2ccccc12)n1cc(C2=CCN3CCCC3C2)c2cnccc21", "note": "(stereo not shown) [3-(1,2,3,5,8,8a-Hexahydro-7-indolizinyl)-1-(1-naphthalenesulfonyl)-5-azaindole]", "reversal of serotonin stimulation of adenyl cyclase (5-HT6 receptor antagonist behaviour)": "able to reverse the serotonin stimulation of adenyl cyclase"}, {"smiles": "O=S(=O)(c1cccc2ccccc12)n1cc(C2=CCN3CCCC3C2)c2cccnc21", "note": "(stereo not shown) [3-(1,2,3,5,8,8a-Hexahydro-7-indolizinyl)-1-(1-naphthalenesulfonyl)-7-azaindole]", "reversal of serotonin stimulation of adenyl cyclase (5-HT6 receptor antagonist behaviour)": "able to reverse the serotonin stimulation of adenyl cyclase"}, {"smiles": "O=S(=O)(c1ccccc1)n1cc(C2=CCN3CCCC3C2)c2cnccc21", "note": "(stereo not shown) [3-(1,2,3,5,8,8a-Hexahydro-7-indolizinyl)-1-benzenesulfonyl-5-azaindole]", "reversal of serotonin stimulation of adenyl cyclase (5-HT6 receptor antagonist behaviour)": "able to reverse the serotonin stimulation of adenyl cyclase"}, {"smiles": "O=S(=O)(c1ccccc1)n1cc(C2=CCN3CCCC3C2)c2cccnc21", "note": "(stereo not shown) [3-(1,2,3,5,8,8a-Hexahydro-7-indolizinyl)-1-benzenesulfonyl-7-azaindole]", "reversal of serotonin stimulation of adenyl cyclase (5-HT6 receptor antagonist behaviour)": "able to reverse the serotonin stimulation of adenyl cyclase"}]}]}
